The text below walks through data of patent EP4613273A1, “TREATMENT OF BONE LOSS” (priority 2024, dated 2025).

Holding throughout (type): in vivo
A short description of data set [1]: MIV-701/MIV-06404 plasma exposure ratio in dog. To be noted: single oral administration, exposure ratio (peak area). As for the experimental part: (§1) Compound Ib besylate salt (referred to as MIV-701 besylate salt) was administered once daily for 14 days to 3 healthy beagle dogs at three different doses: 1 mg/kg, 10 mg/kg and 100 mg/kg.
(§2) Each treatment period can be resumed as follows: • J0 (T+24h): first Compound Ib besylate salt administration, withdrawal of blood samples for pharmacokinetic and plasma CTX-1 assessment (pre-dose and 0.5h, 1h, 2h, 4h, 8h and 24h after drug administration), pre-dose blood samples for hematology and clinical biochemistry (baseline values for safety assessment). • J1 to J12: pre-dose blood samples • J13: last Compound Ib besylate salt administration, withdrawal of plasma samples for pharmacokinetic and plasma CTX-1 assessment (pre-dose and 0.5h, 1h, 2h, 4h, 8h and 24h after drug administration), pre-dose sampling for hematology and clinical biochemistry (baseline values for safety assessment). • J15-J≥19: washout period.
After centrifugation of blood samples plasma aliquots were stored at -20°C. After thawing on ice, 30 µL of plasma were transferred into 1.5 ml microtube containing 270 µL acetonitrile. Microtubes were then vigorously stirred and then centrifuged (12000 rpm, 10 min, 4°C) and the supernatant was transferred in Matrix tube for LC-MS/MS analysis. Calibration curve (9 points, 3 to 30 000 nM) was obtained by spiking plasma samples from naive dogs with appropriate quantities of Compound Ib.
Equipment: LC-MS/MS Acquity I Class-Wevo TQD (Waters®): - Acquity I Class ∘ Column: Waters® Acquity BEH C8, 50*2.1mm, 1.7 µm (40°C) ∘ Mobile phase: • ▪ A: Ammonium Formate 5mM, pH=3.8 • ▪ B: Ammonimuformate 5 mM in CH3CN 5% aqueous, pH=3.8 ∘ Injection volume: 1 µL ∘ Speed: 600 µL/min ∘ Gradient: […]
- Xevo TQD ∘ Source temperature: 150°C ∘ Desolvatation temperature: 600°C ∘ Cone gaz speed: 50L/h ∘ Desolvatation gaz speed: 1200L/h - Analytes MS characteristics

Data set [2] is described as follows: Safety of 14-day repeated oral administration in healthy beagle dogs. The protocol:
as §1
The doses were consecutively administered for 14 days with a >5-day washout period between two dose levels.
as §2

Data set [3] concerns CTX-1. Kind of data set: Plasma CTX-1 (bone resorption marker) in healthy cats. The settings on record: for pre-dose plasma CTX-1 during repeated administration: once-a-day oral 2 and 10 mg/kg, 14 days. As for the experimental part: MIV-701 besylate salt was administered once daily for 14 days to 4 healthy cats at three increasing doses: 2 mg/kg, 10 mg/kg and 50 mg/kg.
The three doses were consecutively administered for 14 days with a >5-day washout period between two dose levels.
Each treatment period can be resumed as follows: • J0 (T+24h): first administration, withdrawal of blood samples for pharmacokinetic and plasma CTX-1 assessment (pre-dose and 0.5h, 1h, 2h, 4h, 8h and 24h after first drug administration), pre-dose blood samples for hematology and clinical biochemistry (baseline values for safety assessment). • J5 ([…]) and J8: pre-dose blood samples. • J13: last administration, withdrawal of plasma samples for pharmacokinetic and plasma CTX-1 assessment (pre-dose and 0.5h, 1h, 2h, 4h, 8h and 24h after last drug administration), pre-dose sampling for hematology and clinical biochemistry (baseline values for safety assessment). • J15 to J≥19: washout period.

Data set [4] has as its system CTX-1. Briefly: Plasma CTX-1 in client-owned dogs with alveolar bone loss induced by spontaneously developed periodontal disease. The protocol:
The present study was performed on 10 Beagle dogs suffering from alveolar bone loss induced by spontaneously developed periodontal disease. All dogs were treated with MIV-701 besylate salt for minimum 30 day and maximum 90 days, depending on the tolerance at intermediate visits. The product is administrated to the dog by its owner at home, once a day with a meal.
There were two treatment groups: • Group A (5 dogs) with a dose of 25 mg/kg. • Group B (5 dogs) with a dose of 50 mg/kg.
Administration protocol and dosage: MIV-701 besylate salt was administrated to dog once-a-day, at home with a standard meal. It was allowed to administrate the capsule(s) with a small amount of wet food/favorite snack. Opening of the capsule and spilling the product over the food was forbidden.
Treatment was administrated for 90 days. Every 30 days, based on the results of clinical exam, blood parameters and potential occurrence of adverse events suspected to be drug-related, the treatment prolongation for another 30 days, or discontinuation of treatment was decided by the Investigator.
Whole blood sample for CTX-1 analysis was collected at visit V2 (Day 0), visit V3 (Day 30+3 days), Visit V4 (Day 60t 3 days) and Visit V5 (Day 90t 3 days).
Each time, the blood sample was collected after overnight fasting, between 08:00 and 10:00 in the morning. As far as possible the blood sample was taken at the same time each visit. The night before the visit, the Investigational Product was administrated to the dog at 21:00.
The result from visit V2 (Day 0) was used as a baseline value for the efficacy evaluation criteria.
Each time 2 ml of the peripheral whole blood was collected on an anti-coagulant tube (K2EDTA) and gently inverted several times. Next, sample was centrifuged at 1500 G for 10 minutes at room temperature. The obtained plasma was divided into two Eppendorf tubes labelled as "Aliquot 1" and "Aliquot 2". Minimum 0.5 ml was placed in "Aliquot 1" while the rest of plasma was placed in "Aliquot 2". All obtained aliquots were immediately stored at - 20°C on site.
The CTX-1 analysis was performed at the end of the study by Central Laboratory. The shipment of aliquots from site to Central Laboratory was organized by the Monitor and divided into two, separated in time shipments. One with all "Aliquot 1" samples and second one with all "Aliquot 2" samples. The CTX-1 SAMPLE SHIPMENT FORM was joined to the shipment.

Counter-ions that a name gives are not always drawn.

For the molecule `CC(C)C[C@H](NC(=O)c1ccc(-c2csc(N3CCN(C)CC3)n2)cc1)C(=O)N1C[C@H](F)[C@H]2OCC(O)(O)[C@H]21` [MIV-701 besylate salt, N-[(S)-1-((3aS,6S,6aS)-6-Fluoro-S-oxo-hexahydro-furo[3,2-b]pyrrole-4-carbony)-3-methyl-butyl]-4-[2-(4-methyl-piperazin-1-yl)-thiazol-4-yl]-benzamide benzenesulphonate], the figures for the MIV-701/MIV06404 ratio in data set [1] (1 mg/kg), in data set [1] (10 mg/kg) and in data set [1] (100 mg/kg) were 7.0, 3.6 and 3.3, respectively. The tolerance result in data set [2] (oral once daily for 14 days, 1, 10 and 100 mg/kg) was “well tolerated at all doses”. Also, the signs of toxicity entry in data set [2] (oral once daily for 14 days, regardless of the dose) is recorded as “No obvious signs of toxicity”. Besides, the “inhibition of plasma CTX-1 vs baseline” value in the data set on CTX-1 [3] (10 mg/kg once a day, end of the 14 days treatment period) is 60%. Besides, in the data set on CTX-1 [3] (D0, three doses tested), the “time of CTX-1 inhibition peak after administration” value is 4 h. In addition, the figures for the “pre-dose plasma CTX-1 during repeated administration” value in the data set with CTX-1 [3] and in the data set with CTX-1 [3] (listed as MIV-701-besylate) were “rapid drop” and “sustained inhibition”, respectively. Besides, the “CTX-1 plasma concentration 24 hours after administration” value with CTX-1 [3] (single dose, all doses tested) is listed as “did not go back to pre-dose concentration”. Moreover, the “reduction of plasma CTX-1” value in the data set on CTX-1 [3] (single oral administration (D0) at 2, 10 and 50 mg/kg) was “comparable reduction of plasma CTX-1”. Also, in the data set on CTX-1 [4] (10 dogs, Day-90), the “patients with reduction in plasma CTX-1” value was “all but one patient experienced reduction”. In the data set with CTX-1 [4] (CTX-1-responders (n=9), Day-90 vs Day-0), the “mean % change in CTX-1” value is given as -67%±6%. The “reduction of plasma CTX-1 vs baseline (Day-0)” value with CTX-1 [4] (dogs with periodontal disease, 25 and 50 mg/kg/day oral, Day-30 and Day-60, no significant difference between groups) is reported as “comparable reduction”. Moreover, the “reduction of plasma CTX-1 vs pre-treatment baseline” value with CTX-1 [4] (dogs with periodontal disease, Day-90 at 50 mg/kg/day, N=10) was “highly significant reduction”.
